Measured values taken from patent publication US8552032B2, “Bicyclic derivatives useful as inhibitors of DPP-1” (Janssen Pharmaceutica NV, priority 2009, dated 2013).

What follows are compounds tested against T1, recombinant human DPP-1 (Cathepsin C) (Homo sapiens, UniProt P53634) (assay: DPP-1 Inhibition Assay (in vitro), fluorogenic substrate GR-AMC). Details: 0.15 nM DPP-1, 10 uM GR-AMC, pH 7.0, room temperature; average value where tested multiple times.
T1 construct: made in house
Format: biochemical
Experimental: Test compounds were assessed for DPP-1 (Cathepsin C) inhibitory activity using a fluorogenic substrate, GR-AMC (Glycine-Arginine-amino-4-methylcoumarin, Bachem, 1-1215). The amount of amino-methylcoumarin released is proportional to the DPP-1 activity, and the reaction is monitored kinetically with a Molecular Devices plate reader using black 96-well plates.
All compounds were tested under room temperature conditions. The assay buffer consisted of 50 mM HEPES, pH 7.0, 100 mM NaCl, 2 mM glutathione (GSH), and 0.002% TWEEN 20. GSH and TWEEN 20 were added to the buffer fresh daily. Just prior to use, an in-house preparation of recombinant human DPP-1 (240 μM stock, MW 49.6 kD) was diluted 600-fold in assay buffer containing fresh 2 mM dithiothreitol (DTT) to activate the enzyme, then diluted into assay buffer (without DTT) 133-fold for a DPP-1 working solution of 3 nM. Test compounds were diluted in DMSO for 20× their final assay concentrations.
Additions to a 96-well black Costar 3915 plates were as follows: 90 μL of 11 μM GR-AMC, 5 μL test compound (followed by mixing), and 5 μL 3 nM DPP1 to start the reaction. Fluorescent reactions were monitored kinetically at 360 nm excitation, 440 nm emission on a Molecular Devices Spectramax XPS reader. The Softmax Pro software of the reader determined the initial velocity of the selected data (the first 3-5 minutes of the reaction), and the best linear regression fit of the initial kinetic data. Final assay conditions were 0.15 nM DPP-1, 10 uM GR-AMC, 50 mM HEPES, pH 7.0, 100 mM NaCl, 2 mM GSH, 0.002% TWEEN 20, 1 uM DTT, 5.0% DMSO. Initial velocity rates were plotted vs. test compound concentration by use of a four-parameter logistics equation (nonlinear regression, sigmoidal dose-response (variable slope), with fixed Hill (1.0) using GraphPad Prism® software for determination of DPP-1 IC50. Within-run assay coefficient of variation (CV) was generally <10%; between-run CV <20%.
Representative compounds of the present invention were tested according to the procedure as described above, with results as listed in Table 12, below.

T1 sequence (P53634 25-463): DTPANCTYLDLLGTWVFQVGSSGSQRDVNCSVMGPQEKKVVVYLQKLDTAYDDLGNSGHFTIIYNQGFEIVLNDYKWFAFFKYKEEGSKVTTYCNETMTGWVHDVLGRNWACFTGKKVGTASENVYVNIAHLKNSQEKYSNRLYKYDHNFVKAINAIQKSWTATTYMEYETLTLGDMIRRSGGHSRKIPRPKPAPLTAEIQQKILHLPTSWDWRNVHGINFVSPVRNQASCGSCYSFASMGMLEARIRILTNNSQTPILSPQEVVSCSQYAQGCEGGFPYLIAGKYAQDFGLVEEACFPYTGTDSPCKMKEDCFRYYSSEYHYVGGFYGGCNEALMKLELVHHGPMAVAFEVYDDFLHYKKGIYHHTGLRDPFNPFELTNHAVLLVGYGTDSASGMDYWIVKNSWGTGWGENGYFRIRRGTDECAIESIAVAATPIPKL

Structure (SMILES) | IC50
CC[C@H](N)C(=O)NCCCc1cc2cc(C(=O)N3CCCc4ccccc43)ccc2o1 [Compound 71] | 2600 nM
CC[C@H](N)C(=O)NCCCc1cc2cc(C(=O)Nc3ccc4[nH]cnc4c3)ccc2o1 [Compound 72] | 2400 nM
CC[C@H](N)C(=O)NCCCc1cc2cc(C(=O)NC3CCNc4ccccc43)ccc2o1 (stereo partly shown) [Compound 73] | 1800 nM
CC[C@H](N)C(=O)NCCCc1cc2cc(C(=O)O)ccc2o1 [Compound 74] | > 10000 nM
CC[C@H](N)C(=O)NCCCc1cc2cc(C(=O)Nc3ccc(C)cc3)ccc2[nH]1 [Compound 75] | 1100 nM
CC[C@H](N)C(=O)NCCCc1cc2cc(C(=O)Nc3ccc(OC)cc3)ccc2[nH]1 [Compound 77] | 350 nM
CC[C@H](N)C(=O)NCCCc1cc2cc(C(=O)Nc3ccc(C(C)(C)C)cc3)ccc2[nH]1 [Compound 78] | 910 nM
CC[C@H](N)C(=O)NCCCc1cc2cc(C(=O)Nc3ccc(F)cc3)ccc2[nH]1 [Compound 79] | 1300 nM
CC[C@H](N)C(=O)NCCCc1cc2cc(C(=O)Nc3ccc(C(C)C)cc3)ccc2[nH]1 [Compound 80] | 680 nM
CC[C@H](N)C(=O)NCCCc1cc2cc(C(=O)Nc3ccc(F)c(F)c3)ccc2[nH]1 [Compound 81] | 790 nM
CC[C@H](N)C(=O)NCCCc1cc2cc(C(=O)Nc3ccc(C)c(C)c3)ccc2[nH]1 [Compound 83] | 560 nM
CC[C@H](N)C(=O)NCCCc1cc2cc(C(=O)N3CCc4ccccc4C3)ccc2o1 [Compound 84] | 1000 nM
CC[C@H](N)C(=O)NCCCc1cc2cc(C(=O)Nc3cccc4[nH]cnc34)ccc2o1 [Compound 85] | 2400 nM
CC[C@H](N)C(=O)NCCCc1cc2cc(C(=O)Nc3ccc4c(c3)S(=O)(=O)C=C4)ccc2o1 [Compound 86] | 1000 nM
CC[C@H](N)C(=O)NCCCc1cc2cc(C(=O)Nc3ccccc3F)ccc2[nH]1 [Compound 87] | 2600 nM
CC[C@H](N)C(=O)NCCCc1cc2cc(C(=O)Nc3ccccc3OC)ccc2[nH]1 [Compound 88] | 1000 nM
CC[C@H](N)C(=O)NCCCc1cc2cc(C(=O)Nc3ccccc3C(C)C)ccc2[nH]1 [Compound 89] | 1200 nM
CC[C@H](N)C(=O)NCCCc1cc2cc(C(=O)Nc3cccc(F)c3)ccc2[nH]1 [Compound 90] | 900 nM
CC[C@H](N)C(=O)NCCCc1cc2cc(C(=O)Nc3cccc(Cl)c3)ccc2[nH]1 [Compound 91] | 800 nM
CC[C@H](N)C(=O)NCCCc1cc2cc(C(=O)Nc3cccc(OC)c3)ccc2[nH]1 [Compound 92] | 350 nM
CC[C@H](N)C(=O)NCCCc1cc2cc(C(=O)Nc3cccc(C)c3)ccc2[nH]1 [Compound 93] | 920 nM
CC[C@H](N)C(=O)NCCCc1cc2cc(C(=O)Nc3cc(OC)cc(OC)c3)ccc2o1 [Compound 94] | 1500 nM

Structure (SMILES) | IC50
CC[C@H](N)C(=O)NCCCc1cc2cc(C(=O)Nc3c(C)cccc3C)ccc2o1 [Compound 95] | 430 nM
CC[C@H](N)C(=O)NCCCc1cc2cc(-c3cc(OC)cc(OC)c3)ccc2[nH]1 [Compound 96] | 370 nM
COc1ccc(NC(=O)c2ccc3[nH]c(CCCNC(=O)[C@@H](N)Cc4cccs4)cc3c2)cc1OC [Compound 97] | 24 nM
CC[C@H](N)C(=O)NCCCc1cc2cc(Oc3ccccc3)ccc2[nH]1 [Compound 98] | 480 nM
CC[C@H](N)C(=O)NCCCc1cc2cc(Oc3ccc(OC)c(OC)c3)ccc2[nH]1 [Compound 99, (S)-2-amino-N-(3-(5-(3,4-dimethoxyphenoxy)-1H-indol-2-yl)propyl)butanamide] | 420 nM
CC[C@H](N)C(=O)NCCCc1cc2cc(-c3ccccc3)ccc2[nH]1 [Compound 100] | 520 nM
CC[C@H](N)C(=O)NCCCc1cc2cc(-c3ccc(F)cc3)ccc2[nH]1 [Compound 101] | 790 nM
CC[C@H](N)C(=O)NCCCc1cc2cc(-c3ccc(C(F)(F)F)cc3)ccc2[nH]1 [Compound 102] | 710 nM
CC[C@H](N)C(=O)NCCCc1cc2cc(-c3cccc(C(N)=O)c3)ccc2[nH]1 [Compound 103] | 390 nM
CC[C@H](N)C(=O)NCCCc1cc2cc(-c3ccc(OC)cc3)ccc2[nH]1 [Compound 104] | 340 nM
CC[C@H](N)C(=O)NCCCc1cc2cc(-c3ccc(OC(F)(F)F)cc3)ccc2[nH]1 [Compound 105] | 860 nM
COc1ccc(NC(=O)c2ccc3[nH]c(CCCN(C)C(=O)[C@@H](N)Cc4cccs4)cc3c2)cc1OC [Compound 106, (S)-2-(3-(2-amino-N-methyl-3-(thiophen-2-yl)propanamido)propyl)-N-(3,4-dimethoxyphenyl)-1H-indole-5-carboxamide] | 82 nM
CC[C@H](N)C(=O)N(C)CCCc1cc2cc(C(=O)Nc3ccc(OC)c(OC)c3)ccc2[nH]1 [Compound 107] | 9000 nM
CC[C@H](N)C(=O)NCCCc1cc2cc(-c3cc(C(F)(F)F)cc(C(F)(F)F)c3)ccc2[nH]1 [Compound 109] | 760 nM
CC[C@H](N)C(=O)NCCCc1cc2cc(-c3ccc(C(N)=O)cc3)ccc2[nH]1 [Compound 111] | 690 nM
CC[C@H](N)C(=O)NCCCc1cc2cc(-c3ccc4c(c3)OCO4)ccc2[nH]1 [Compound 112] | 520 nM
CC[C@H](N)C(=O)NCCCc1cc2cc(-c3cccc(S(N)(=O)=O)c3)ccc2[nH]1 [Compound 113] | 700 nM
CC[C@H](N)C(=O)NCCCc1cc2cc(-c3ccncc3)ccc2[nH]1 [Compound 114] | 670 nM
CC[C@H](N)C(=O)NCCCc1cc2cc(-c3ccccc3C(N)=O)ccc2[nH]1 [Compound 116] | 2000 nM
COc1ccc(NC(=O)c2ccc3[nH]c(CCCNC(=O)[C@@H](N)Cc4nccs4)cc3c2)cc1OC [Compound 117, (S)-2-(3-(2-amino-3-(thiazol-2-yl)propanamido)propyl)-N-(3,4-dimethoxyphenyl)-1H-indole-5-carboxamide] | 81 nM
CCN(CCCc1cc2cc(C(=O)Nc3ccc(OC)c(OC)c3)ccc2[nH]1)C(=O)[C@@H](N)Cc1cccs1 [Compound 118] | 370 nM
